Reference: patent publication US20240390508A1, “HUMAN TRANSFERRIN RECEPTOR BINDING PEPTIDE-DRUG CONJUGATE” (priority 2021, published 2024)
pKd: −log10 of the molar value.

Molecular target: transferrin receptor (hTfR) (Homo sapiens, UniProt P02786)
Test: Intermolecular interaction evaluation test between transferrin receptor (hTfR) and peptide-nucleic acid conjugate using surface plasmon resonance (SPR)
Assay type: binding
Procedure: Intermolecular interaction evaluation test between transferrin receptor (hTfR) and peptide using surface plasmon resonance (SPR)
The various synthesized peptide-nucleic acid conjugates were tested for intermolecular interaction by surface plasmon resonance (SPR) of the peptide-nucleic acid conjugate with transferrin receptor (hTfR) using the method shown below. The specific test method is shown below.
NTA sensor chip (Global Life Science Technologies Japan Co., Ltd.) was inserted into Biacore T200 (Global Life Science Technologies Japan Co., Ltd.), prime operation was performed three times with running buffer: 10 mM HEPES pH 8.0 (Nacalai Tesque Co., Ltd.), 150 mM NaCl (Nacalai Tesque Co., Ltd.), 0.05% Tween 20 (Nacalai Tesque Co., Ltd.), 0.1% BSA (SIGMA-ALDRICH), and 1.0% DMSO (FUJIFILM Wako Pure Chemical Corporation), and equilibrated at a flow rate of 30 μL/min. 350 mM EDTA solution was reacted for 60 seconds at a flow rate of 10 μL/min, 0.5 mM NiCl2 solution (Kishida Chemical) was reacted for 60 seconds at a flow rate of 10 μL/min, and the NTA sensor chip was washed with 3 mM EDTA solution (Nacalai Tesque Co., Ltd.) for 60 seconds at a flow rate of 10 μL/min. After mixing 50 μL each of […] EDC solution (Global Life Science Technologies Japan Co., Ltd.) and […] NHS solution (Global Life Science Technologies Japan Co., Ltd.), the mixture was reacted for 420 seconds at a flow rate of 10 μL/min. 150 μL of a 0.5 μM hTfR solution was prepared by diluting with a running buffer and reacted for 300 seconds at a flow rate of 10 μL/min to immobilize hTfR on the NTA sensor chip. After immobilization, capping was performed by reacting with a 1.0 M ethanolamine aqueous solution (Global Life Science Technologies Japan Co., Ltd.) at a flow rate of 10 μL/min for 420 seconds. A peptide-nucleic acid conjugate solution adjusted to 10 mM in DMSO solution was diluted with running buffer to a final concentration of 10 μM peptide-nucleic acid conjugate solution, and 100 nM, 50 nM, 25 nM, 10 nM, 5 nM peptide-nucleic acid conjugate solutions were prepared. Using the aforementioned samples, the kinetics of the peptide against hTfR was obtained by SPR measurement.
The kinetics evaluation model was Single Cycle Kinetics, and curve fitting was performed using Biacore T200 Evaluation Software Version 3.0 (Global Life Science Technologies Japan Co., Ltd.). The obtained sensorgram was subjected to curve fitting using the least squares method, and the binding of the peptide-nucleic acid conjugate to hTfR was evaluated by determining the KD value.

Sequence of transferrin receptor (hTfR) (P02786 whole entry): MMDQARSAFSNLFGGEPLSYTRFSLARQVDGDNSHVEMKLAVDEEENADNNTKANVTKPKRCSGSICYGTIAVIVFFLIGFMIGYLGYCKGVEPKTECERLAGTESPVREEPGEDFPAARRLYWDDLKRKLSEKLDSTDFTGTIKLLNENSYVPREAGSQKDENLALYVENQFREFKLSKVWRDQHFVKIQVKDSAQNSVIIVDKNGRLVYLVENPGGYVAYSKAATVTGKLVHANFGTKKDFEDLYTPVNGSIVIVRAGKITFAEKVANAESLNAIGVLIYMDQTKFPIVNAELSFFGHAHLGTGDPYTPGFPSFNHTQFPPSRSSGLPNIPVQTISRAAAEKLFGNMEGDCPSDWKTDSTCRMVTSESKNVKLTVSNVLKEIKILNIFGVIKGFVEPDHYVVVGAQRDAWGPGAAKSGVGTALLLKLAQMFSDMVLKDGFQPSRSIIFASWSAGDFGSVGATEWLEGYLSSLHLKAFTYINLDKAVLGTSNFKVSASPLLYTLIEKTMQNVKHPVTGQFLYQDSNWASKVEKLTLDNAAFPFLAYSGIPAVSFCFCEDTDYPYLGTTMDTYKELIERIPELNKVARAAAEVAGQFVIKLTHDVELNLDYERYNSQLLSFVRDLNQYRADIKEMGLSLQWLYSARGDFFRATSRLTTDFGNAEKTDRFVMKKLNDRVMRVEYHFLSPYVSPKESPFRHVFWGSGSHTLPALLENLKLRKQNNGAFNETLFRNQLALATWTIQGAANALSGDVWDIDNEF

CC[C@H](C)[C@@H]1NC(=O)[C@H](Cc2ccc(O)cc2)NC(=O)[C@H](Cc2ccc(O)cc2)NC(=O)[C@H](CC(N)=O)NC(=O)[C@H](Cc2c[nH]c3ccccc23)NC(=O)[C@H](C(C)C)NC(=O)[C@H](Cc2ccccc2)N(C)C(=O)[C@H](C(C)C)NC(=O)[C@H](C)NC(=O)CSC[C@@H](C(=O)NCC(=O)N[C@@H](CCCCn2nnc3c2CCC2C(CC3)C2COC(=O)NCCOCCOCC(=O)N[C@@H](CCCNC(=N)N)C(=O)N[C@@H](CCCNC(=N)N)C(=O)N[C@@H](CCCNC(=N)N)C(=O)NCCC(=O)N2C[C@@H](COP(=O)(N(C)C)N3C[C@@H](COP(=O)(N(C)C)N4C[C@@H](COP(=O)(N(C)C)N5C[C@@H](COP(=O)(N(C)C)N6C[C@@H](COP(=O)(N(C)C)N7C[C@@H](COP(=O)(N(C)C)N8C[C@@H](COP(=O)(N(C)C)N9C[C@@H](COP(=O)(N(C)C)N%10C[C@@H](COP(=O)(N(C)C)N%11C[C@@H](COP(=O)(N(C)C)N%12C[C@@H](COP(=O)(N(C)C)N%13C[C@@H](COP(=O)(N(C)C)N%14C[C@@H](COP(=O)(N(C)C)N%15C[C@@H](COP(=O)(N(C)C)N%16C[C@@H](COP(=O)(N(C)C)N%17C[C@@H](COP(=O)(N(C)C)N%18C[C@@H](COP(=O)(N(C)C)N%19C[C@@H](COP(=O)(N(C)C)N%20C[C@@H](COP(=O)(N(C)C)N%21C[C@@H](COP(=O)(N(C)C)N%22C[C@@H](COP(=O)(N(C)C)N%23C[C@@H](COP(=O)(N(C)C)N%24C[C@@H](COP(=O)(N(C)C)N%25C[C@@H](COP(=O)(N(C)C)N%26C[C@@H](COP(=O)(N(C)C)N(C)CC(N)=O)O[C@@H](n%27cnc%28c(=O)[nH]c(N)nc%28%27)C%26)O[C@@H](n%26cc(C)c(=O)[nH]c%26=O)C%25)O[C@@H](n%25cc(C)c(=O)[nH]c%25=O)C%24)O[C@@H](n%24cnc%25c(=O)[nH]c(N)nc%25%24)C%23)O[C@@H](n%23ccc(N)nc%23=O)C%22)O[C@@H](n%22ccc(N)nc%22=O)C%21)O[C@@H](n%21cc(C)c(=O)[nH]c%21=O)C%20)O[C@@H](n%20ccc(N)nc%20=O)C%19)O[C@@H](n%19ccc(N)nc%19=O)C%18)O[C@@H](n%18cnc%19c(=O)[nH]c(N)nc%19%18)C%17)O[C@@H](n%17cnc%18c(=O)[nH]c(N)nc%18%17)C%16)O[C@@H](n%16cc(C)c(=O)[nH]c%16=O)C%15)O[C@@H](n%15cc(C)c(=O)[nH]c%15=O)C%14)O[C@@H](n%14ccc(N)nc%14=O)C%13)O[C@@H](n%13cc(C)c(=O)[nH]c%13=O)C%12)O[C@@H](n%12cnc%13c(=O)[nH]c(N)nc%13%12)C%11)O[C@@H](n%11cnc%12c(N)ncnc%12%11)C%10)O[C@@H](n%10cnc%11c(N)ncnc%11%10)C9)O[C@@H](n9cnc%10c(=O)[nH]c(N)nc%109)C8)O[C@@H](n8cnc9c(=O)[nH]c(N)nc98)C7)O[C@@H](n7cc(C)c(=O)[nH]c7=O)C6)O[C@@H](n6cnc7c(=O)[nH]c(N)nc76)C5)O[C@@H](n5cc(C)c(=O)[nH]c5=O)C4)O[C@@H](n4cc(C)c(=O)[nH]c4=O)C3)O[C@@H](n3ccc(N)nc3=O)C2)C(N)=O)NC(=O)[C@H](Cc2ccc(O)cc2)N(C)C(=O)[C@H](Cc2ccc(O)cc2)NC(=O)[C@H](CCCNC(=N)N)NC(=O)[C@H](CCCNC(=N)N)NC(=O)[C@H]([C@@H](C)CC)NC1=O (stereo partly shown) [Example 57]
pKd: > 7.00
